Experimental data reported in publication PMC6934184, “Selective DNA-PKcs inhibition extends the therapeutic index of localized radiotherapy and chemotherapy” (The Journal of Clinical Investigation, 2019).

Molecular target: T1, CDK1/cyclin B (Homo sapiens, UniProt P06493)
T1 construct: purchased Thermo Fisher Scientific (Life Technologies) SelectScreen
Assay: SelectScreen Z'LYTE
Format: biochemical
Procedure, shortened: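 NU5455 was profiled across the SelectScreen Broad panel of kinase activity and binding assays. Z'LYTE reactions such as CSF1R ran at apparent Km ATP, while the Adapta CAMK1 assay used ATP listed as 10. Values are given as percent.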

T1 sequence (P06493 whole entry): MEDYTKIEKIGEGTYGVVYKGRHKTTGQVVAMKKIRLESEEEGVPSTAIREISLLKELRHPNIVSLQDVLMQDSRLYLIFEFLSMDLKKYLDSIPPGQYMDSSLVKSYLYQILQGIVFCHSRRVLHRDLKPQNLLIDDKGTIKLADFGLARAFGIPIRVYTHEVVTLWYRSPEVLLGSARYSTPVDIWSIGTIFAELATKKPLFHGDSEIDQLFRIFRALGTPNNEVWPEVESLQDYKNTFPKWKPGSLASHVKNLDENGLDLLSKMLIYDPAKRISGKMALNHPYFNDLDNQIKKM
T1 sequence (P14635 whole entry partner): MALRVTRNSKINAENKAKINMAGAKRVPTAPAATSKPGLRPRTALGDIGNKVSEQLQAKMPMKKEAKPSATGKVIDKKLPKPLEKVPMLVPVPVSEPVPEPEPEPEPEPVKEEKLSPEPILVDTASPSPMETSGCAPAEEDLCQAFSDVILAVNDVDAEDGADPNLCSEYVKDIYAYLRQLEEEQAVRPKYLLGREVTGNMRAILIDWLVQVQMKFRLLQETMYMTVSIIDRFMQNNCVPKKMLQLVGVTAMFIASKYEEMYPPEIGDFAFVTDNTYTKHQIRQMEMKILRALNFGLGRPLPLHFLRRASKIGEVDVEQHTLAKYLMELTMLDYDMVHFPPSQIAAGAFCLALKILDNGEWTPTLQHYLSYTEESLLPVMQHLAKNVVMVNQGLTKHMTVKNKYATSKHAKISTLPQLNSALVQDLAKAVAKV

## CN(C(=O)CN1CCOCC1)c1ccc2sc3c(-c4cccc5c(=O)cc(N6CC7CCC(C6)O7)oc45)cccc3c2c1 [NU5455]
  inhibition at 1 µM: 1.6%
